# Read-outs that look alike come from different tables or passages of the source. Square brackets hold non-standard residues; d marks the D form. Ends that are not written are not given here. rhodamine = not defined here
# Assays:
# [1] = system: MOG35-55-specific murine line T cells (mMOG35-55 T-cells)
# [2] = system: TCRα on antigen-stimulated mMOG35-55-specific line T cells; test: Co-localization of Rho-labeled peptides with TCRα (confocal microscopy); format: cell-based, murine; settings: activated T cells
# Chain of TCRα on antigen-stimulated mMOG35-55-specific line T cells (P01849 whole entry): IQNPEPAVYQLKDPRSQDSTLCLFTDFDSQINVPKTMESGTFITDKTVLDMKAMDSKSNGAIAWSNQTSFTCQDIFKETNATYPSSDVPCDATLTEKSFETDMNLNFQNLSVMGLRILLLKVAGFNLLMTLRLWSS
# Procedure: FITC excitation was set at 488 nm, with the laser set at 5% power and fluorescence was recorded from 502-525 nm. Rhodamine excitation was set at 559 nm, with the laser set at 1% power and the fluorescence data were collected above 580 nm. Each cell was imaged for TCRα staining (denoted in green) and for peptide staining (denoted in red). Using ImageJ, the images (n=20) were set to binary color and the two revised pictures were used to create a new picture of only what merged between them. The merged picture was divided by the revised red picture to give the percentage of co-localization.
# Co-localization of the peptide with the TCR was assessed utilizing confocal microscopy (FIG. 5 D-E). Antigen-stimulated mMOG35-55-specific line T cells were probed with antibodies against TCRα followed by staining with secondary FITC-labeled antibodies (left column) and with the Rho-labeled peptide (SEQ ID NO: 3) (middle column). To evaluate the co-localization between the molecules, a merged image was produced (right column). […] As a control, AMP (SEQ ID NO: 13), a non-related antimicrobial peptide (Papo et al. J Biol Chem. 2005; 280(11):10378-10387), was labeled with rhodamine and its localization on T cells was detected.
# [3] = system: TCR (Jurkat T cells); test: Binding of Rho-labeled peptides to T-cell proteins (cross-linking SDS-PAGE, immunoprecipitation); parameters: species or system human; settings: for fluorescent bands of T-cell proteins bound to Rho-peptide (SDS-PAGE): 1 μM Rho-labeled peptide, formaldehyde cross-linked Jurkat lysate
# Chain of TCR (Jurkat T cells) (P01848 whole entry): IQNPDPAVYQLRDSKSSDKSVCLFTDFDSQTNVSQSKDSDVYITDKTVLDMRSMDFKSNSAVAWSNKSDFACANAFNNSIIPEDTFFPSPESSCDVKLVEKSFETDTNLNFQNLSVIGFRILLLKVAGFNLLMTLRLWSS
# Chain of TCR (Jurkat T cells) (P01850 whole entry, further chain): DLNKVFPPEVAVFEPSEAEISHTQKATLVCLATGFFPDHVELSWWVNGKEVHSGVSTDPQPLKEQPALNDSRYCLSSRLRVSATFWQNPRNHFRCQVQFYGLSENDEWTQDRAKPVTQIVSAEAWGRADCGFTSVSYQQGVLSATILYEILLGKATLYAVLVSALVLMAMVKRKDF
# Procedure: Jurkat T cells (4×10^6) were incubated over night at 37° C. in the presence of 1 μM rhodamine-labeled peptide and lysed. The lysate was then incubated overnight with TCRα or GFP antibodies (2 μg) following 2 hours of incubation with protein G-plus Agarose beads (Santa Cruz Biotechnology Inc.). Next, the beads were washed with lysis buffer and boiled for 10 minutes; the protein supernatant was then run in a 12% SDS-PAGE. The presence of coimmunoprecipitated peptide was detected by the Typhoon 9400 variable mode imager.
# Jurkat T cells (4×10^6) were incubated over night at 37° C. in the presence of 1 μM rhodamine-labeled pep6 (SEQ ID NO:3) and its mutant control peptide. Next, the cells were washed with PBS, crosslinked with 1% formaldehyde and after 10 minutes a 125 mM glycine solution was added to stop the reaction. Formaldehyde is a well known cross-linking agent used in the characterization of protein-protein interactions. The cells were lysed for 30 minutes on ice in a 300 μl lysis buffer followed by a sonication step. Insoluble material was removed by centrifugation at 3000×g for 4 min at 4° C. The proteins were resolved by 12% SDS-PAGE and proteins bound to the fluorescently labeled peptide were detected by the Typhoon 9400 variable mode imager (Amersham Biosciences). Excitation was set at 532 nm, and fluorescence emission was collected by a TAMRA filter (580 nm±30 nm) at 100 μm resolution and 600 volts. The protein loading amount was confirmed by Western blot to actin.
# To investigate the interaction of the peptide with the TCR, 1 μM fluorescently labeled Rho-peptides were incubated with Jurkat T cells and then cross-linked with formaldehyde to maintain the interaction with their target proteins. The cross-linked T-cell lysate was resolved by SDS-PAGE and proteins bound to Rho-peptides were detected by the fluorescence of rhodamine (FIG. 5B). […] Western blot for actin was used to assure equal loading. […] Bound proteins were separated by SDS-PAGE and analyzed for the presence of the fluorescently-labeled peptides.
# [4] = molecular target: T1, core peptide of TMD from TCRα, CP (GLRILLLKV; SEQ ID NO: 14) (Mus musculus, UniProt P01849); test: Fluorescent measurements of NBD-labeled core peptide of TCRα TMD in LUV; format: binding; settings: PC:Chol LUV, sequential doses
# T1 construct: termed CP (GLRILLLKV); made in house
# Procedure: The fluorescence experiments were performed using NBD-labeled core peptides of TCRα (NBD-CP). Fluorescence spectra were obtained at room temperature, with excitation set at 467 nm (10 nm slit) and the emission scan at 500-600 nm (10 nm slits). In a typical experiment, the NBD-CP was first added from a stock solution in DMSO (final concentration of 0.1 μM and a maximum of 0.25% (v/v) DMSO) to a dispersion of PC:Chol LUV (200 μM) in PBS. This was followed by the addition of unlabeled HIV peptides in several sequential doses ranging from 2.5×10-3 μM to 0.4 μM. Fluorescence spectra were obtained before and after the addition of unlabeled HIV peptides. The fluorescence values were corrected by subtracting the corresponding blank (buffer with the same vesicle concentration).
# The TCR complex's TMD helices mediate receptor activation through the interactions between basic and acidic residues. […] To investigate this possibility, we utilized NBD fluorescence, which is sensitive to the membrane surroundings; its emission intensity is increased via membrane insertion (Rapaport et al. Embo J. 1995; 14(22):5524-5531). […] Their initial fluorescence emission spectra were first measured in the presence of LUVs alone and then in the presence of several sequential doses of unlabeled peptide and its mutants (SEQ ID NO: 3, 9 and 10) (FIG. 5H).
# [5] = system: T-cell lymphocytes derived from mice spleen cells; test: Binding of fluorescently labeled peptides to spleen-derived lymphocytes; format: cell-based
# Description: Further, the T-cell binding affinity of peptides having the amino acid sequence of […] (SEQ ID NO:2 and 11; all L- and all D-amino acids, respectively) was examined. […] Spleen derived B cell lymphocytes were used as a control.
# [6] = system: encephalitogenic MOG35-55 reactive T cells (LNCs); test: Ex vivo recall response of lymph node cells from MOG35-55/CFA-immunized mice (proliferation, cytokine ELISA); format: in vivo, C57Bl/6J mice
# Procedure: (§1) Mice were subcutaneously immunized with 150 μg MOG35-55 emulsified in complete Freund's adjuvant (CFA) containing 150 μg Mt H37Ra with or without 0.5 mg/kg HIV peptides. Ten days post immunization, draining lymph nodes were removed and cultured in triplicate in the presence or absence of antigen, as previously described. The cultures were incubated for 72 h at 37° C. [3H] Thymidine ([…]) was added for an additional 16 h of incubation and the cultures were then harvested and counted using a Beta Counter. Pro-inflammatory cytokine analysis of IFNγ, IL-12, and TNFα were determined by ELISA, 24 h after cell activation, according to standard protocols from PharMingen (San Diego, Calif.), as described previously
# as §1, with “described. […]” for “described. The cultures were incubated for 72 h at 37° C. [3H]”, “described previously. […]” for “described previously”
# [7] = MOG35-55 and APCs, peptides 2.5-20 μM
compound,measurement,setting,value
"CC[C@H](C)[C@H](NC(=O)[C@H](CCC(N)=O)NC(=O)[C@H](CCC(=O)O)NC(=O)[C@H](CC(C)C)NC(=O)[C@H](CO)NC(=O)[C@H](CCCCN)NC(=O)[C@H](CC(N)=O)NC(=O)[C@H](N)CO)C(=O)N[C@@H](Cc1c[nH]c2ccccc12)C(=O)N[C@@H](CC(N)=O)C(=O)N[C@@H](Cc1c[nH]cn1)C(=O)N[C@H](C(=O)N[C@H](C(=O)N[C@@H](Cc1c[nH]c2ccccc12)C(=O)N[C@@H](CCSC)C(=O)N[C@@H](CCC(=O)O)C(=O)N[C@@H](Cc1c[nH]c2ccccc12)C(=O)N[C@H](CC(=O)O)C(N)=O)[C@@H](C)O)[C@@H](C)O [D-PEP 6, SNKSLEQIWNHTTWMEWD]",IC50,[1],3 µM
"EQIWNHTTWMEWDREINN-NH2 [SHIFTED PEP 6, EQIWNHTTWMEWDREINN]",IC50,[1],10 µM
same,inhibition of T-cell proliferation (potency in words),[1]; [7],still exhibited potent activity
"LQARILAVERYLKDQQL [ISU, LQARILAVERYLKDQQL, reference compound]",IC50,[1],15 µM
"Rho-AMP: AMP (SEQ ID NO: 13) labeled with rhodamine (KLKLLKLLKLLKLLK; also: rhodamine label, site not given here)",co-localization with TCRα molecules,[2],found throughout the cell membrane
Rho-pep 6: rhodamine N-terminally labeled pep 6 (SEQ ID NO: 3) (rhodamine-SNKSLEQIWNHTTWMEWD-NH2; reading uncertain),fluorescent bands of T-cell proteins bound to Rho-peptide (SDS-PAGE),[3],only one major fluorescent band
same,coimmunoprecipitation with TCRα antibodies,"[3]; Jurkat T cells, GFP antibody as control",coprecipitated with the TCR
SNKSLEQIGNHTTGMEGD [SEQ ID NO: 9],fluorescence emission maxima of NBD-CP upon addition of unlabeled peptide,[4],only a slight increase
same,fluorescent bands of T-cell proteins bound to Rho-peptide (SDS-PAGE),[3],neither observed
SNKSLEQIWNHTTWMGWG [SEQ ID NO: 10],fluorescence emission maxima of NBD-CP upon addition of unlabeled peptide,[4],only a slight increase
"TTAVPWNASWSNKSLEQI-NH2 [PEP 1, TTAVPWNASWSNKSLEQI]",IC50,[1],> 40 µM
same,inhibition of T-cell proliferation (potency in words),[1]; [7],not active
"WNASWSNKSLEQIWNHT-NH2 [PEP 8, WNASWSNKSLEQIWNHT]",IC50,[1],15 µM
WNHTTWMEWD ([dW][dN][dH][dT][dT][dW][dM][dE][dW][dD]) [SEQ ID NO: 11],binding to T-cell lymphocytes versus B cell lymphocytes,[5],preferably bind T-cell lymphocytes
same,ex vivo recall proliferative response of LNCs to MOG35-55,"[6]; 0.5 mg/kg peptide, day 10 post immunization",down-regulation
"WNHTTWMEWD-NH2 [SHORT PEP 6, WNHTTWMEWD]",binding to T-cell lymphocytes versus B cell lymphocytes,[5],preferably bind T-cell lymphocytes
same,ex vivo recall proliferative response of LNCs to MOG35-55,"[6]; mouse, in vivo",down-regulation
same,IC50,[1],5 µM
same,inhibition of T-cell proliferation (potency in words),[1],still exhibited potent activity

# From patent US20150175666A1, “PEPTIDES DERIVED FROM HIV GP41 FOR TREATING T-CELL MEDIATED PATHOLOGIES” (Yeda Research and Development Co. Ltd., priority 2012, published 2015)
